Earlier results as cited in patent US20240418706A1, “QUANTIFICATION OF CIRCULATING REGENERATIVE AND ENDOTHELIAL PROGENITOR CELLS AS PREDICTORS OF HEALTH STATUS” (priority 2022, published 2024).
Where two headings read alike, the source gives them in different places.

How the values were obtained:
[1] = test system: endothelial responsiveness
circulating EPC [2] = settings: in vivo
[3] = >17,000 healthy persons without hyperlipidemia but with elevated high-sensitivity C-reactive protein
circulating EPC [4] = settings: lipid lowering therapy
[5] = 6 days of G-CSF at 10 μg/kg
[6] = 41 patients with large anterior wall AMI
EPC = settings: in vivo
[7] = 114 patients, 56 treated and 58 control

For “growth hormone: growth hormone, used in "antiaging medicine"”, the endothelial responsiveness ([1]; healthy volunteers) is given as “improve endothelial responsiveness” and the endothelial responsiveness ([1]; patients with congestive heart failure) is given as “improve endothelial responsiveness”.

For `CC(C)c1nc(N(C)S(C)(=O)=O)nc(-c2ccc(F)cc2)c1/C=C/[C@@H](O)C[C@@H](O)CC(=O)O` [Crestor], the “circulating EPC levels” value (circulating EPC [2]) is given as “increase circulating EPC levels”, the CRP levels [3] is given as “lowering CRP levels” and the “incidence of major cardiovascular incidents” value [3] is given as “significantly reduced”.

For `CC(C)c1c(C(=O)Nc2ccccc2)c(-c2ccccc2)c(-c2ccc(F)cc2)n1CC[C@@H](O)C[C@@H](O)CC(=O)O` [atorvastatin], the “circulating EPC” value (circulating EPC [4]) is listed as “increase circulating EPC” and the oxidative stress (circulating EPC [4]) is listed as “reduced oxidative stress”.

B1: G-CSF: Granulocyte colony stimulating factor, used clinically for mobilization of hematopoietic stem cells (protein, UniProt P09919 31-207, looked up)
Granulocyte …: TPLGPASSLPQSFLLKCLEQVRKIQGDGAALQEKLVSECATYKLCHPEELVLLGHSLGIPWAPLSSCPSQALQLAGCLSQLHSGLFLYQGLLQALEGISPELGPTLDTLQLDVADFATTIWQQMEELGMAPALQPTQGAMPAFASAFQRRAGGVLVASHLQSFLEVSYRVLRHLAQP
For B1, the “myocardial wall at the area of infarct” value ([5]; four months after the infarct, sustained over a year, compared to controls) is given as “thicker myocardial wall”, the ejection fraction ([5]; in comparison to controls) is given as “Statistically significant improvements” and the pathological remodeling ([5]; in comparison to controls) is given as “inhibition of pathological remodeling”. For the same molecule, the LVEF [6] was “improvement in LVEF”, the pathological remodeling [6] was “diminished pathological remodeling” and the “mobilization of EPC” value (EPC) was “stimulates mobilization of EPC”. For the same molecule, the “infarct size, left ventricular function, or coronary restenosis” value [7] was “no influence”.
